Measurements reported in the supplement of paper PMC10307832.

What was measured:
Assay in all cases: relative viability (nuclei count vs DMSO), 5 days (fraction); higher = more cells survive
LCLC-97TM1 = tested on: LCLC-97TM1
How it was run: (§1)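 Five library-drug doses in √10 steps were combined with a fixed anchor-drug dose, or a single drug was given alone, by pin tool to lung cancer cell lines in 1536-well plates the day after seeding. Nuclei were stained and counted after 5 days. Relative viability is the nuclei count in treated wells over that in vehicle wells, taken as the median of duplicate plates.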

NCI-H661 = tested on: NCI-H661
How it was run: as §1

NCI-H650 = tested on: NCI-H650
How it was run: as §1

H3255 = tested on: H3255
How it was run: as §1

201T = tested on: 201T
How it was run: as §1

PC-14 = tested on: PC-14
How it was run: as §1

NCI-H1666 = tested on: NCI-H1666
How it was run: as §1

NCI-H520 = tested on: NCI-H520
How it was run: as §1

NCI-H1915 = tested on: NCI-H1915
How it was run: as §1

EPLC-272H = tested on: EPLC-272H
How it was run: as §1

RERF-LC-KJ = tested on: RERF-LC-KJ
How it was run: as §1

NCI-H23 = tested on: NCI-H23
How it was run: as §1

NCI-H2405 = tested on: NCI-H2405
How it was run: as §1

COR-L 105 = tested on: COR-L 105
How it was run: as §1

NCI-H647 = tested on: NCI-H647
How it was run: as §1

NCI-H322M = tested on: NCI-H322M
How it was run: as §1

NCI-H2087 = tested on: NCI-H2087
How it was run: as §1

HCC-78 = tested on: HCC-78
How it was run: as §1

HCC-827 = tested on: HCC-827
How it was run: as §1

NCI-H2347 = tested on: NCI-H2347
How it was run: as §1

ChaGo-K-1 = tested on: ChaGo-K-1
How it was run: as §1

NCI-H2126 = tested on: NCI-H2126
How it was run: as §1

LC-2-ad = tested on: LC-2-ad
How it was run: as §1

`O=C(O)c1ccc(-c2c[nH]c3ncc(-c4ccccc4)cc23)cc1C1CCCC1` + COc1cc2c(Oc3ccc(NC(=O)C4(C(=O)Nc5ccc(F)cc5)CC4)cc3F)ccnc2cc1OCCCN1CCOCC1 [Foretinib] (partner 0.25 µM) was tested, and the relative viability (LCLC-97TM1; first compound 0.04 µM) was 0.911, the relative viability (LCLC-97TM1; first compound 0.1265 µM) was 1.03 and the relative viability (LCLC-97TM1; first compound 0.4 µM) was 0.892. For the same compound, the relative viability (LCLC-97TM1; first compound 1.265 µM) was 0.525, the relative viability (NCI-H661; first compound 0.04 µM) was 1 and the relative viability (NCI-H661; first compound 0.4 µM) was 0.971. The relative viability (NCI-H661; first compound 1.265 µM) was 0.977, the relative viability (NCI-H650; first compound 0.04 µM) was 1.13 and the relative viability (NCI-H650; first compound 0.1265 µM) was 1.11. It also gave a relative viability (NCI-H650; first compound 0.4 µM) of 0.888, a relative viability (NCI-H650; first compound 1.265 µM) of 0.71 and a relative viability (H3255; first compound 0.04 µM) of 0.934. It also gave a relative viability (H3255; first compound 0.1265 µM) of 1.08, a relative viability (H3255; first compound 0.4 µM) of 0.888 and a relative viability (H3255; first compound 1.265 µM) of 0.814. For the same compound, the relative viability (201T; first compound 0.04 µM) was 1.29, the relative viability (201T; first compound 0.1265 µM) was 1.25 and the relative viability (201T; first compound 0.4 µM) was 1.11. For the same compound, the relative viability (201T; first compound 1.265 µM) was 0.958, the relative viability (PC-14; first compound 0.04 µM) was 0.943 and the relative viability (PC-14; first compound 0.1265 µM) was 0.958. It also gave a relative viability (PC-14; first compound 0.4 µM) of 1.01, a relative viability (PC-14; first compound 1.265 µM) of 0.941 and a relative viability (NCI-H1666; first compound 0.04 µM) of 0.961. The relative viability (NCI-H1666; first compound 0.1265 µM) was 0.959, the relative viability (NCI-H1666; first compound 0.4 µM) was 0.921 and the relative viability (NCI-H1666; first compound 1.265 µM) was 0.441. It also gave a relative viability (NCI-H520; first compound 0.04 µM) of 0.687, a relative viability (NCI-H520; first compound 0.1265 µM) of 0.923 and a relative viability (NCI-H520; first compound 0.4 µM) of 0.78. It also gave a relative viability (NCI-H520; first compound 1.265 µM) of 0.717, a relative viability (NCI-H1915; first compound 0.04 µM) of 1.13 and a relative viability (NCI-H1915; first compound 0.1265 µM) of 1.11. The relative viability (NCI-H1915; first compound 0.4 µM) was 1.03, the relative viability (NCI-H1915; first compound 1.265 µM) was 0.783 and the relative viability (EPLC-272H; first compound 0.04 µM) was 0.694. For the same compound, the relative viability (EPLC-272H; first compound 0.1265 µM) was 0.752, the relative viability (EPLC-272H; first compound 0.4 µM) was 0.585 and the relative viability (EPLC-272H; first compound 1.265 µM) was 0.187. It also gave a relative viability (RERF-LC-KJ; first compound 0.04 µM) of 0.86, a relative viability (RERF-LC-KJ; first compound 0.1265 µM) of 0.865 and a relative viability (RERF-LC-KJ; first compound 0.4 µM) of 0.933. It also gave a relative viability (RERF-LC-KJ; first compound 1.265 µM) of 0.837, a relative viability (NCI-H23; first compound 0.04 µM) of 1.1 and a relative viability (NCI-H23; first compound 0.1265 µM) of 1. The relative viability (NCI-H23; first compound 0.4 µM) was 0.939, the relative viability (NCI-H23; first compound 1.265 µM) was 0.616 and the relative viability (NCI-H2405; first compound 0.04 µM) was 1.05. It also gave a relative viability (NCI-H2405; first compound 0.1265 µM) of 1.1, a relative viability (NCI-H2405; first compound 0.4 µM) of 1.02 and a relative viability (NCI-H2405; first compound 1.265 µM) of 0.747. It also gave a relative viability (COR-L 105; first compound 0.04 µM) of 1.1, a relative viability (COR-L 105; first compound 0.1265 µM) of 1.43 and a relative viability (COR-L 105; first compound 0.4 µM) of 0.886. For the same compound, the relative viability (COR-L 105; first compound 1.265 µM) was 1.22, the relative viability (NCI-H647; first compound 0.04 µM) was 1.33 and the relative viability (NCI-H647; first compound 0.1265 µM) was 1.35. It also gave a relative viability (NCI-H647; first compound 0.4 µM) of 1.14, a relative viability (NCI-H647; first compound 1.265 µM) of 0.965 and a relative viability (NCI-H322M; first compound 0.04 µM) of 1.02. The relative viability (NCI-H322M; first compound 0.1265 µM) was 1.03, the relative viability (NCI-H322M; first compound 0.4 µM) was 0.993 and the relative viability (NCI-H322M; first compound 1.265 µM) was 0.824. The relative viability (NCI-H2087; first compound 0.04 µM) was 0.933, the relative viability (NCI-H2087; first compound 0.1265 µM) was 1.16 and the relative viability (NCI-H2087; first compound 0.4 µM) was 1.06. It also gave a relative viability (NCI-H2087; first compound 1.265 µM) of 0.901, a relative viability (HCC-78; first compound 0.1265 µM) of 0.584 and a relative viability (HCC-78; first compound 0.4 µM) of 0.524. For the same compound, the relative viability (HCC-78; first compound 1.265 µM) was 0.531, the relative viability (HCC-827; first compound 0.04 µM) was 0.914 and the relative viability (HCC-827; first compound 0.1265 µM) was 1.08. The relative viability (HCC-827; first compound 0.4 µM) was 0.957, the relative viability (HCC-827; first compound 1.265 µM) was 0.543 and the relative viability (NCI-H2347; first compound 0.04 µM) was 0.861. The relative viability (NCI-H2347; first compound 0.1265 µM) was 0.783, the relative viability (NCI-H2347; first compound 0.4 µM) was 1.01 and the relative viability (NCI-H2347; first compound 1.265 µM) was 0.803. It also gave a relative viability (ChaGo-K-1; first compound 0.04 µM) of 0.995, a relative viability (ChaGo-K-1; first compound 0.1265 µM) of 0.928 and a relative viability (ChaGo-K-1; first compound 0.4 µM) of 0.833. For the same compound, the relative viability (ChaGo-K-1; first compound 1.265 µM) was 0.863, the relative viability (NCI-H2126; first compound 0.04 µM) was 1.25 and the relative viability (NCI-H2126; first compound 0.1265 µM) was 1.12. It also gave a relative viability (NCI-H2126; first compound 0.4 µM) of 1.16, a relative viability (NCI-H2126; first compound 1.265 µM) of 1.2 and a relative viability (LC-2-ad; first compound 0.04 µM) of 0.973. For the same compound, the relative viability (LC-2-ad; first compound 0.1265 µM) was 0.935, the relative viability (LC-2-ad; first compound 0.4 µM) was 0.798 and the relative viability (LC-2-ad; first compound 1.265 µM) was 0.702.
